From patent publication US8614201B2 (Janssen Pharmaceutica NV, priority 2009, dated 2013)

Target: Human TRPA1 (Homo sapiens, UniProt O75762)
Assay: Assay 1: In vitro cellular testing of TRPA1 modulation (CHO-TREx, Fluo-3 calcium fluorescence, AITC agonist)
Assay type: cell-based
Parameters: expressed in transfected cells; host or cells: CHO-TREx cells (Invitrogen), vector pcDNA4/TO
Conditions: CHO-TREx cells expressing human TRPA1; Fluo-3 fluorescence (FLIPR/Tetra); agonist 15 μM allyl isothiocyanate (AITC); 30 minute antagonist incubation
Procedure, shortened: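 Tetracycline-induced CHO-TREx cells stably expressing human TRPA1, loaded with 4 μM Fluo-3 AM, preincubated 30 min with compound (serial dilution typically from 10 μM, three-fold steps) in HEPES saline pH 7.4. Fluorescence change over 3 min after 15 μM AITC; IC50 from Hill fit versus no-antagonist and 10 μM ruthenium red controls.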

Human TRPA1, sequence (O75762 whole entry): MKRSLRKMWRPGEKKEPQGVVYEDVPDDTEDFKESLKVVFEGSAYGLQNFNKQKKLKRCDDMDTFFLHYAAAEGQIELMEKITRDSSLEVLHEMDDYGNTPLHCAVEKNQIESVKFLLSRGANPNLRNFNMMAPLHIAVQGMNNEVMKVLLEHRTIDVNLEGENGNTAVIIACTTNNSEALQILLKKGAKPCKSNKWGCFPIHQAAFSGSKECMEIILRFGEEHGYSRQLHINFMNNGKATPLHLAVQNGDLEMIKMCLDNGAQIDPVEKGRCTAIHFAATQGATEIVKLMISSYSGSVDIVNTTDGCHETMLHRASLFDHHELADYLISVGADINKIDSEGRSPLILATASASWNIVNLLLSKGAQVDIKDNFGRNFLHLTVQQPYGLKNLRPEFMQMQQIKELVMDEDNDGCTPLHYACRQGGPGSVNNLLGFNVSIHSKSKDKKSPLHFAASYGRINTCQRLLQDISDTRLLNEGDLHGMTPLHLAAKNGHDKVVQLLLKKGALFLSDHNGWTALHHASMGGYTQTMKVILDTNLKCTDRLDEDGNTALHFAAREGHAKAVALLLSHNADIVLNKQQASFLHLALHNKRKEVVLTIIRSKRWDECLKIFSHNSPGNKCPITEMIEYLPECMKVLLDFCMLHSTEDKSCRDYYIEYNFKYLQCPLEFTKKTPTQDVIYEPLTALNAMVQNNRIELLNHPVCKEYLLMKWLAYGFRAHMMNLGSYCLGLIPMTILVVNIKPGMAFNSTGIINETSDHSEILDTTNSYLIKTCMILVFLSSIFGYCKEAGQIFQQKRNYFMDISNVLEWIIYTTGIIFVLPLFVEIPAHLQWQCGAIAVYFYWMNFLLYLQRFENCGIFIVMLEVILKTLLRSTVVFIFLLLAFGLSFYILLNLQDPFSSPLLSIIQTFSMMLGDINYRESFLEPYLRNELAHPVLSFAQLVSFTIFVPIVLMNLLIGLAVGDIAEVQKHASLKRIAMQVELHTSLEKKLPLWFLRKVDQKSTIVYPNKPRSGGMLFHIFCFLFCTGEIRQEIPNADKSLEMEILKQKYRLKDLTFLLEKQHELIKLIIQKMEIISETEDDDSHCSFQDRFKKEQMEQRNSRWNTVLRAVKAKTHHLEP

SMILES	IC50
CC(Nc1cc(CNC(=O)[C@@H]2C=CCN2S(=O)(=O)c2ccc(F)cc2)cc(-c2ccc(C(F)(F)F)cc2)n1)c1ccccc1 (stereo partly drawn) [Example 406, (2S)-1-[(4-Fluorophenyl)sulfonyl]-N-({2-[(1-phenylethyl)amino]-6-[4-(trifluoromethyl)phenyl]pyridin-4-yl}methyl)-2,5-dihydro-1H-pyrrole-2-carboxamide]	0.833 µM
CC(Nc1cc(CNC(=O)[C@@H]2CCCN2S(=O)(=O)c2ccc(F)cc2)cc(-c2ccc(C(F)(F)F)cc2)n1)c1ccccn1 (stereo partly drawn) [Example 408, 1-[(4-Fluorophenyl)sulfonyl]-N-({2-[(1-pyridin-2-ylethyl)amino]-6-[4-(trifluoromethyl)phenyl]pyridin-4-yl}methyl)-L-prolinamide]	0.054 µM
CC(Nc1cc(CNC(=O)[C@@H]2CC(F)(F)CN2S(=O)(=O)c2ccc(F)cc2)cc(-c2ccc(C(F)(F)F)cc2)n1)c1ccccc1 (stereo partly drawn) [Example 410, 4,4-Difluoro-1-[(4-fluorophenyl)sulfonyl]-N-({2-[(1-phenylethyl)amino]-6-[4-(trifluoromethyl)phenyl]pyridin-4-yl}methyl)-L-prolinamide]	1.26 µM
CC(Nc1cc(CNC(=O)[C@@H]2C=CCN2S(=O)(=O)c2ccc(F)cc2)cc(-c2ccc(C(F)(F)F)cc2)n1)c1ccncc1 (stereo partly drawn) [Example 412, (2S)-1-[(4-Fluorophenyl)sulfonyl]-N-({2-[(1-pyridin-4-ylethyl)amino]-6-[4-(trifluoromethyl)phenyl]pyridin-4-yl}methyl)-2,5-dihydro-1H-pyrrole-2-carboxamide]	1.27 µM
CC(Nc1cc(CNC(=O)[C@@H]2CC(F)(F)CN2S(=O)(=O)c2ccc(F)cc2)cc(-c2ccc(C(F)(F)F)cc2)n1)c1ccccn1 (stereo partly drawn) [Example 416, 4,4-Difluoro-1-[(4-fluorophenyl)sulfonyl]-N-({2-[(1-pyridin-2-ylethyl)amino]-6-[4-(trifluoromethyl)phenyl]pyridin-4-yl}methyl)-L-prolinamide]	1.06 µM
CC1CCCN1c1cc(CNC(=O)[C@@H]2C=CCN2S(=O)(=O)c2ccc(Cl)s2)cc(-c2ccc(C(F)(F)F)cc2)n1 (stereo partly drawn) [Example 417, (2S)-1-[(5-Chlorothiophen-2-yl)sulfonyl]-N-({2-(2-methylpyrrolidin-1-yl)-6-[4-(trifluoromethyl)phenyl]pyridin-4-yl}methyl)-2,5-dihydro-1H-pyrrole-2-carboxamide]	0.082 µM

Next, values leading:

IC50	SMILES
1.91 µM	CC(Nc1cc(CNC(=O)[C@@H]2C=CCN2S(=O)(=O)c2ccc(Cl)s2)cc(-c2ccc(C(F)(F)F)cc2)n1)c1ccncc1 (stereo partly drawn) [Example 404, (2S)-1-[(5-Chlorothiophen-2-yl)sulfonyl]-N-({2-[(1-pyridin-4-ylethyl)amino]-6-[4-(trifluoromethyl)phenyl]pyridin-4-yl}methyl)-2,5-dihydro-1H-pyrrole-2-carboxamide]
0.481 µM	CC(Nc1cc(CNC(=O)[C@@H]2CCCN2S(=O)(=O)c2ccc(Cl)s2)cc(-c2ccc(C(F)(F)F)cc2)n1)c1cccnc1 (stereo partly drawn) [Example 405, 1-[(5-Chlorothiophen-2-yl)sulfonyl]-N-({2-[(1-pyridin-3-ylethyl)amino]-6-[4-(trifluoromethyl)phenyl]pyridin-4-yl}methyl)-L-prolinamide]
0.185 µM	CC(Nc1cc(CNC(=O)[C@@H]2C=CCN2S(=O)(=O)c2ccc(Cl)s2)cc(-c2ccc(C(F)(F)F)cc2)n1)c1ccccc1 (stereo partly drawn) [Example 407, (2S)-1-[(5-Chlorothiophen-2-yl)sulfonyl]-N-({2-[(1-phenylethyl)amino]-6-[4-(trifluoromethyl)phenyl]pyridin-4-yl}methyl)-2,5-dihydro-1H-pyrrole-2-carboxamide]
0.064 µM	CC(Nc1cc(CNC(=O)[C@@H]2CCCN2S(=O)(=O)c2ccc(Cl)s2)cc(-c2ccc(C(F)(F)F)cc2)n1)c1ccccn1 (stereo partly drawn) [Example 409, 1-[(5-Chlorothiophen-2-yl)sulfonyl]-N-({2-[(1-pyridin-2-ylethyl)amino]-6-[4-(trifluoromethyl)phenyl]pyridin-4-yl}methyl)-L-prolinamide]
1.43 µM	CC(Nc1cc(CNC(=O)[C@@H]2CC(F)(F)CN2S(=O)(=O)c2ccc(Cl)s2)cc(-c2ccc(C(F)(F)F)cc2)n1)c1ccccc1 (stereo partly drawn) [Example 411, 1-[(5-Chlorothiophen-2-yl)sulfonyl]-4,4-difluoro-N-({2-[(1-phenylethyl)amino]-6-[4-(trifluoromethyl)phenyl]pyridin-4-yl}methyl)-L-prolinamide]
0.269 µM	CC(Nc1cc(CNC(=O)[C@@H]2CCCN2S(=O)(=O)c2ccc(F)cc2)cc(-c2ccc(C(F)(F)F)cc2)n1)c1ccccc1 (stereo partly drawn) [Example 413, 1-[(4-Fluorophenyl)sulfonyl]-N-({2-[(1-phenylethyl)amino]-6-[4-(trifluoromethyl)phenyl]pyridin-4-yl}methyl)-L-prolinamide]
0.057 µM	CC(Nc1cc(CNC(=O)[C@@H]2CCCN2S(=O)(=O)c2ccc(Cl)s2)cc(-c2ccc(C(F)(F)F)cc2)n1)c1ccccc1 (stereo partly drawn) [Example 414, 1-[(5-Chlorothiophen-2-yl)sulfonyl]-N-({2-[(1-phenylethyl)amino]-6-[4-(trifluoromethyl)phenyl]pyridin-4-yl}methyl)-L-prolinamide]
0.57 µM	CC(Nc1cc(CNC(=O)[C@@H]2CC(F)(F)CN2S(=O)(=O)c2ccc(Cl)s2)cc(-c2ccc(C(F)(F)F)cc2)n1)c1ccccn1 (stereo partly drawn) [Example 415, 1-[(5-Chlorothiophen-2-yl)sulfonyl]-4,4-difluoro-N-({2-[(1-pyridin-2-ylethyl)amino]-6-[4-(trifluoromethyl)phenyl]pyridin-4-yl}methyl)-L-prolinamide]
